From patent US20160115540A1, “PRODRUGS AND DRUGS” (Biogen MA Inc., priority 2013, published 2016)
Where a name gives a salt, the structure may show the parent alone.

System: kidney
Experiment: Transcriptional profiling on Affymetrix GeneChips, single dose, naïve mice: kidney
Format: in vivo, C57BL/6 mice
Settings: for FC: 100DMF-vs-Veh, fold change of the probe set/gene named in the row (Affymetrix, naïve single dose); for Number of differentially expressed genes identified: Kidney: Naïve, Single Dose
Protocol: Treated mice were sacrificed at 2, 7, or 12 hours. Tissues (liver, spleen, kidney, jejunum, cortex, hippocampus, striatum and whole blood) were collected and analyzed by transcriptional profiling on mouse Affymetrix GeneChips.
Tissues (liver, spleen, kidney, jejunum, cortex, hippocampus, striatum and whole blood) were collected and analyzed by transcriptional profiling on mouse Affymetrix GeneChips.
Animals were exposed to CO2 and whole blood collected via cardiac puncture. Two 100 μl aliquots of whole blood were collected in 1.5 mL microcentrifuge tubes and snap frozen in liquid nitrogen. Peripheral (liver, spleen, kidney and jejunum) and CNS brain (cerebellum, hippocampus, striatum and cortex) tissues were harvested and snap frozen in liquid nitrogen, with special care taken to collect tissues of similar size and from the same location. All samples were stored at −80° C. until RNA extraction was conducted.
For RNA preparation, frozen tissues were placed in 2 mL RNAse-free 96-well blocks with 1.5 mL QIAzol Lysis Reagent (QIAgen) and a 3.2 mm stainless steel bead (BioSpec Products, Bartlesville, Okla.). Tissues were disrupted for four cycles of 45 seconds in a Mini-Beadbeater (Biospec Products). RNA was extracted in chloroform and the aqueous phase was mixed with an equal volume of 70% ethanol. Extracted RNA was applied to RNeasy 96 plates and purified by the spin method according to the manufacturer's protocol (RNeasy 96 Universal Tissue Protocol, QIAgen, Hilden Germany).
Automated sample amplifications and biotin labelings were carried out using the NuGEN Ovation RNA Amplification system V2 (Cat #3100), Ovation WB reagent (Cat #1300) and Encore Biotin module (Cat #4200) (NuGEN Technologies, Inc, San Carlos, Calif.) according to manufacturer's recommendations using an Arrayplex automated liquid handler (Beckman Coulter, Indianapolis, Ind.). Two micrograms of biotin labeled sscDNA probe were hybridized to Affymetrix GeneChip Affymetrix HT_MG-430_PM plate arrays with modified conditions as described in Allaire et al. Washing and staining of the hybridized arrays were completed as described in the GeneChip Expression analysis technical manual for HT plate arrays using the Genechip® Array Station (Affymetrix, Santa Clara, Calif.) with modifications as described in Allaire et al. The processed GeneChip® plate arrays were scanned using GeneTitan scanner (Affymetrix, Santa Clara, Calif.).
Affymetrix scans were subject to quality control (QC) measures. These tests included a visual inspection of the distribution of raw signal intensities and an assessment of RNA degradation, relative log expression (RLE), and normalized unsealed standard error (NUSE). All sample scans that passed these QC metrics were included in the analysis.
All CEL files were subjected to GC-content-based Robust Multi-array Average (GCRMA) normalization (version 2.20.0) (Irizarry R A, et al. Nucleic Acids Res 2003; 31:e15; Li C, et al. Genome Biol 2001; 2:[…]0032). Expression levels were log (base 2) transformed.
All calculations and analyses were carried out using R (version 2.11.1) and Bioconductor computational tools (Gentleman R. Springer Science+Business Media 2005).

COC(=O)/C=C/C(=O)OC [DMF, dimethyl fumarate]
FC Tmem88b 1436974_PM_at (100 DMF-vs-Veh, 2 h): −2.24 | FC Tnfaip3 1433699_PM_at (100 DMF-vs-Veh, 2 h): −1.83 | FC Tnfsf10 1439680_PM_at (100 DMF-vs-Veh, 2 h): −1.52 | FC Trim7 1439352_PM_at (100 DMF-vs-Veh, 2 h): −1.54 | FC Txnrd1 1421529_PM_a_at (100 DMF-vs-Veh, 2 h): 1.53 | FC Txnrd1 (1424487_PM_x_at) (100 DMF-vs-Veh, 2 h): 1.99 | FC Ubiad1 1424213_PM_at (100 DMF-vs-Veh, 2 h): −1.61 | FC Ubxn7 1435912_PM_at (100 DMF-vs-Veh, 2 h): 1.51 | FC Vps37b 1424380_PM_at (100 DMF-vs-Veh, 2 h): 1.56 | FC Zbtb2 1434901_PM_at (100 DMF-vs-Veh, 2 h): 2.52 | FC Zfp30 1449813_PM_at (100 DMF-vs-Veh, 2 h): −1.55 | FC Zfp39 1441198_PM_at (100 DMF-vs-Veh, 2 h): −1.64 | FC Zfp93 1418955_PM_at (100 DMF-vs-Veh, 2 h): −1.74 | FC Zfp189 1425287_PM_at (100 DMF-vs-Veh, 2 h): 1.51 | FC Zfp295 1425305_PM_at (100 DMF-vs-Veh, 2 h): 2.68 | FC Zfp295 1441973_PM_at (100 DMF-vs-Veh, 2 h): 2.08 | FC Zfp759 1452623_PM_at (100 DMF-vs-Veh, 2 h): −1.65 | FC Zswim6 1434967_PM_at (100 DMF-vs-Veh, 2 h): 1.63 | FC (7 h): −1.82 | FC (12 h): 1.82 | FC Adm (1416077_PM_at) (KIDNEY, 100 DMF-vs-Veh, 2 h): 1.56 | FC Bhlhe40 (1418025_PM_at) (KIDNEY, 100 DMF-vs-Veh, 2 h): 1.59 | FC Cyr61 (1416039_PM_x_at) (KIDNEY, 100 DMF-vs-Veh, 2 h): 2.43 | FC Dbf4 (1418334_PM_at) (KIDNEY, 100 DMF-vs-Veh, 2 h): 2.08 | FC Ddit3 (1417516_PM_at) (KIDNEY, 100 DMF-vs-Veh, 2 h): 3.97 | FC Dnaja1 (1416288_PM_at) (KIDNEY, 100 DMF-vs-Veh, 2 h): 1.69 | FC Dnaja4 (1418591_PM_at) (KIDNEY, 100 DMF-vs-Veh, 2 h): 2.05 | FC Dnaja4 (1418592_PM_at) (KIDNEY, 100 DMF-vs-Veh, 2 h): 1.87 | FC Dnajb1 (1416755_PM_at) (KIDNEY, 100 DMF-vs-Veh, 2 h): 3.03 | FC Dnajb1 (1416756_PM_at) (KIDNEY, 100 DMF-vs-Veh, 2 h): 4.36 | FC Dusp6 (1415834_PM_at) (KIDNEY, 100 DMF-vs-Veh, 2 h): 1.52 | FC Dusp16 (1418401_PM_a_at) (KIDNEY, 100 DMF-vs-Veh, 2 h): 1.50 | FC Egr1 (1417065_PM_at) (KIDNEY, 100 DMF-vs-Veh, 2 h): 4.60 | FC Gclm 1418627_PM_at (KIDNEY, 100 DMF-vs-Veh, 2 h): 1.51 | FC Hbegf (1418349_PM_at) (KIDNEY, 100 DMF-vs-Veh, 2 h): 2.03 | FC Hbegf (1418350_PM_at) (KIDNEY, 100 DMF-vs-Veh, 2 h): 2.21 | FC Ier2 (1416442_PM_at) (KIDNEY, 100 DMF-vs-Veh, 2 h): 1.75 | FC Ifrd1 (1416067_PM_at) (KIDNEY, 100 DMF-vs-Veh, 2 h): 1.52 | FC Igfbp1 (1418918_PM_at) (KIDNEY, 100 DMF-vs-Veh, 2 h): −2.89 | FC Nab2 (1417930_PM_at) (KIDNEY, 100 DMF-vs-Veh, 2 h): 2.74 | FC Nasp (1416042_PM_s_at) (KIDNEY, 100 DMF-vs-Veh, 2 h): 1.62 | FC Nfil3 (1418932_PM_at) (KIDNEY, 100 DMF-vs-Veh, 2 h): 2.29 | FC Pmaip1 (1418203_PM_at) (KIDNEY, 100 DMF-vs-Veh, 2 h): 1.68 | FC Ppp2r3c (1417479_PM_at) (KIDNEY, 100 DMF-vs-Veh, 2 h): 1.59 | FC Rcan1 (1416600_PM_a_at) (KIDNEY, 100 DMF-vs-Veh, 2 h): 1.51 | FC Sertad1 (1417406_PM_at) (KIDNEY, 100 DMF-vs-Veh, 2 h): 2.06 | FC Sirt1 (1418640_PM_at) (KIDNEY, 100 DMF-vs-Veh, 2 h): 1.68 | FC Slc22a4 (1417639_PM_at) (KIDNEY, 100 DMF-vs-Veh, 2 h): −1.51 | FC Tnfrsf12a 1418571_PM_at (KIDNEY, 100 DMF-vs-Veh, 2 h): 2.37 | FC Tnfrsf12a 1418572_PM_x_at (KIDNEY, 100 DMF-vs-Veh, 2 h): 2.33 | FC Tnnc1 (1418370_PM_at) (KIDNEY, 100 DMF-vs-Veh, 2 h): 1.89 | FC Txnip (1415997_PM_at) (KIDNEY, 100 DMF-vs-Veh, 2 h): −1.73 | FC Zfand2a (1415940_PM_at) (KIDNEY, 100 DMF-vs-Veh, 2 h): 1.55 | FC Zfand5 (1416084_PM_at) (KIDNEY, 100 DMF-vs-Veh, 2 h): 1.63 | FC Zfand5 (1416085_PM_s_at) (KIDNEY, 100 DMF-vs-Veh, 2 h): 1.68 | Number of genes, DMF Only / MMF Only (Kidney): 61 | Asns (1451095_PM_at) differential expression (Kidney, 2 hr): 3.03 | Cbr3 (1427912_PM_at) differential expression (Kidney, 2 hr): 3.04 | Gdf15 (1418949_PM_at) differential expression (Kidney, 2 hr): 5.39 | Mthfd2 (1419253_PM_at) differential expression (Kidney, 2 hr): 2.06 | Number of differentially expressed genes identified: Kidney (100 mpk DMF-vs-100 mpk MMF, 2 h after last dosing): 1 | Number of differentially expressed genes identified: Kidney (100 mpk DMF-vs-100 mpk MMF, 7 h after last dosing): 1 | Number of differentially expressed genes identified: Kidney (100 mpk DMF-vs-100 mpk MMF, 12 h after last dosing): 2 | Number of differentially expressed genes identified: Kidney (100 mpk, vs Vehicle, 2 h after last dosing): 331 | Number of differentially expressed genes identified: Kidney (100 mpk, vs Vehicle, 7 h after last dosing): 93 | Number of differentially expressed genes identified: Kidney (100 mpk, vs Vehicle, 12 h after last dosing): 100 | Asns (1451095_PM_at) differential expression (kidney, 7 hr): 1.92 | Cbr3 (1427912_PM_at) differential expression (kidney, 7 hr): 5.88 | Gdf15 (1418949_PM_at) differential expression (kidney, 7 hr): 1.75 | Mthfd2 (1419253_PM_at) differential expression (kidney, 7 hr): 1.65 | Asns (1451095_PM_at) differential expression (kidney, 12 hr): 2.65 | Cbr3 (1427912_PM_at) differential expression (kidney, 12 hr): 5.67 | Gdf15 (1418949_PM_at) differential expression (kidney, 12 hr): 1.77 | Mthfd2 (1419253_PM_at) differential expression (kidney, 12 hr): 1.60 | FC 1439640_PM_at (no gene symbol) (kidney, 100DMF-vs-100MMF, 2 h): 1.54 | FC Nr1d1 (1426464_PM_at) (kidney, 100DMF-vs-100MMF, 7 h): 1.56 | FC 1441333_PM_at (no gene symbol) (kidney, 100DMF-vs-100MMF, 12 h): 1.91 | FC C76628 (1420187_PM_at) (kidney, 100DMF-vs-100MMF, 12 h): 1.59
